Laboratory results reported in article PMC7976169 (Antiviral research, 2020).
Read-outs that look alike come from different tables or passages of the source.

What was measured:
[1] = test system: Uninfected Vero cells; assay type: in vitro ADME
[2] = test system: HSV; conditions: cited from earlier work
[3] = test system: HSV-1 KOS1.1-infected Vero cells; test: Biosynthesis of nucleoside analog triphosphate in HSV-infected cells; assay type: in vitro ADME
[4] = test system: HCMV; conditions: cited from earlier work
[5] = test system: HCMV Towne-infected HFF cells; test: Biosynthesis of nucleoside analog triphosphate in HCMV-infected cells; assay type: in vitro ADME; conditions: for Other metabolites detected: five times the EC50
[6] = test system: Uninfected HFF cells; test: Triphosphate formation in uninfected HFF cells; assay type: in vitro ADME
[7] = in vivo; cited from earlier work
[8] = read-out: EC50 against HCMV, ref Zhou et al., 2004
[9] = read-out: EC50 vs HCMV, ref Qiu et al., 1998

## Nc1nc2c(ncn2COCCO)c(=O)[nH]1 [ACV, acyclovir]
[1]
  Levels of phosphates in uninfected Vero cells: no measurable level
[2]; reported EC50 of ACV, ref Furman et al., 1981
  EC50: 1000 nM

## Nc1nc2c(ncn2COCCOP(=O)(O)OP(=O)(O)OP(=O)(O)O)c(=O)[nH]1 [ACV-TP]
[3]; HSV-infected cells, 5.0 μM ACV, 8 hours
  Triphosphate level at 8 hours: 3.8 ± 0.3 pmol/10^6 cells
[3]; HSV-infected cells, delay due to lack of HSV-TK early after infection
  Delay in production of triphosphate: ~2 h

## Nc1nc2c(ncn2/C=C2/CC2(CO)CO)c(=O)[nH]1 [FCV, Filociclovir]
[4]; [8]
  EC50: 460 nM
[4]; ref Zhou et al., 2004
  Fold greater efficacy against HCMV compared to GCV: 10 fold

## Nc1nc(O)c2ncn(COC(CO)CO)c2n1 [GCV, ganciclovir]
[5]
  Other metabolites detected: no other metabolites
[6]
  Levels of phosphates in uninfected HFF cells: no measurable levels
[4]; [8]
  EC50: 4100 nM
[4]; [9]
  EC50: 7400 nM
[7]
  Incidence of neutropenia: ~ 30 % of patients

## Nc1nc(O)c2ncn(COC(CO)COP(=O)(O)OP(=O)(O)OP(=O)(O)O)c2n1 (stereo not drawn) [GCV-TP]
[5]; […], maximum at 120 hours
  Peak Triphosphate Level: 42.6 ± 3.7 pmol/10^6 cells

## CCCCOc1nc(N)nc2c1ncn2C=C1CC1(CO)CO [MBX-2168]
[5]
  Other metabolites detected: no other metabolites
[3]; HSV-infected Vero cells, five times the EC50
  Other metabolites detected: no other metabolites
[4]; read-out: EC50 HCMV, ref Prichard et al., 2013
  EC50: 800 nM
[2]; read-out: EC50 HSV, ref Prichard et al., 2013
  EC50: 6700 nM

## Nc1ccn(C[C@@H](CO)OCP(=O)(O)O)c(=O)n1 [cidofovir]
[7]
  Incidence rate of nephrotoxicity: ~ 50%

## O=C(O)P(=O)(O)O [foscarnet]
[7]
  Incidence rate of nephrotoxicity: ~ 50%

## Nc1nc2c(ncn2/C=C2/CC2CO)c(=O)[nH]1 (stereo not drawn) [synguanol]
[5]
  Other metabolites detected: no other metabolites
[6]
  Levels of phosphates in uninfected HFF cells: no measurable levels
[4]; [9]
  EC50: 2100 nM
